Reference: patent US6929811B2, “Monoamine oxidase (MAO) inhibitors and uses thereof” (priority 1998, dated 2005)

Assays:
MPTP induced toxicity = details: mice, cited from earlier work; for effect on dopamine levels: MPTP
MAO B = experiment: Selective MAO B assay in liver homogenate, other isoform blocked by selective inhibitor; assay type: biochemical, cow or rat; details: saturating concentration; significantly different from control
Protocol: (§1) Liver samples from cow or rat were obtained immediately after sacrifice. Liver was homogenized in a Polytron mechanical homogenizer in a ratio of 1 gram of liver to 1 ml of potassium phosphate buffer (0.2 M at pH of 7.6). Large membranes were removed by low speed centrifugation at 1000×g for 15 minutes. The supernatant was removed from the pellet and used immediately for MAO activity assays or stored at 0 degrees Centigrade. Protein levels were determined in the liver homogenate by the Bradford protein reaction.
(§2) The standard reaction conditions were developed as a modification of the spectrophotometric assay using standard conditions (Halt, A., et al., Analytical Biochemistry, 244:384-392 (1997)). Total MAO activity was determined by incubating the liver preparations for 30 minutes at 37 degrees Centigrade with a 1/1 dilution of a test fraction (compound or substance to be tested dissolved in distilled water) or control condition (water alone). […]
(§3) Following the incubation with test compounds/substances or control, the MAO reactions were initiated and the reactions were incubated at 37 degrees Centigrade. […] The stopped reactions were stored on ice and placed at room temperature for reading in a spectrophotometer at a wavelength of 498 nm. The resulting values were analyzed to determine the amount of reaction product produced by MAO activity. […]
(§4) Selective assays of MAO A and MAO B isoforms were determined by using selective inhibitors of each of these enzymes. […]
(§5) Each of the compounds and substances of the present invention were evaluated by initially determining a concentration curve at a reaction time of one hour. After determining the concentration curves of each compound or substance on MAO activity, a reaction time course in the presence or absence of test compound or substance was determined and time course curves were generated. Following these experiments, the effect of each test compound or substance was evaluated on MAO A and MAO B activity by the same reaction studies as described above for the total enzyme activity.

MAO = experiment: Total MAO activity, spectrophotometric assay in liver homogenate; assay type: biochemical, cow or rat; details: for percent inhibition of MAO activity: at maximal or saturating inhibition concentrations, tyramine substrate, 37 degrees Centigrade; for maximal inhibition concentration: dissolved in distilled water, concentration curve at reaction time of one hour; for MAO inhibition over the reaction time course: saturating concentrations, over 60 minutes of MAO activity
Protocol: The MAO activities of the compounds and substances were determined using standard reaction conditions as described in Halt, A., et al., Analytical Biochemistry, 244:384-392 (1997).
as §1
The standard reaction conditions were developed as a modification of the spectrophotometric assay using standard conditions (Halt, A., et al., Analytical Biochemistry, 244:384-392 (1997)). Total MAO activity was determined by incubating the liver preparations for 30 minutes at 37 degrees Centigrade with a 1/1 dilution of a test fraction (compound or substance to be tested dissolved in distilled water) or control condition (water alone). This incubation allowed the test compound or substance to interact with the enzyme under physiological conditions. The final tissue concentration in the reaction mixture was 3.5 mg per 100 ml.
Following the incubation with test compounds/substances or control, the MAO reactions were initiated and the reactions were incubated at 37 degrees Centigrade. The reaction was initiated by mixing 150 μl of preincubated tissue with 150 μl of chromogenic solution (containing 10 mM vanillic acid, 5 mM 4-amino antipyrene, 20 units/ml of peroxidase in 0.2 M potassium phosphate buffer final concentration pH 7.6), 600 μl of amine substrate (tyramine 500 micromolar), and 100 μl of distilled water (1 ml reaction volume). The standard reaction time was for 1 hour, but reaction times varied from 1 minute to 3 hours to evaluate the time course of the reaction in the presence or absence of test substance or control. The reactions were terminated by the addition of 30 μl of a stop solution of phenelzine (10 mM). The stopped reactions were stored on ice and placed at room temperature for reading in a spectrophotometer at a wavelength of 498 nm. The resulting values were analyzed to determine the amount of reaction product produced by MAO activity. This assay was reliable and simple to perform. A standard curve using hydrogen peroxide for enzyme activity was prepared for each experiment to determine the activity of the enzyme.
as §5

MAO A = experiment: Selective MAO A assay in liver homogenate, other isoform blocked by selective inhibitor; assay type: biochemical, cow or rat; details: saturating concentration; significantly different from control
Protocol: as §1, §2, §3, §4, §5

Compound	effect on dopamine levels (MPTP induced toxicity)	effect on decrease in dopamine metabolite levels induced by MPTP (MPTP induced toxicity)	inhibition of MAO B activity (MAO B)	percent inhibition of MAO activity (MAO)	maximal inhibition concentration (MAO)	MAO inhibition over the reaction time course (MAO)	inhibition of MAO A activity (MAO A)
c1ccc(-c2ccncc2)cc1 [4-phenylpyridine]	no significant effect on dopamine levels	prevented the decrease in dopamine metabolite levels					
c1cncc([C@@H]2CCCCN2)c1 [anabasine, Anabasine]			inhibit both MAO A and MAO B activity	10-13%	0.2 mg/mL	effective at inhibiting the enzyme at all time points in the reaction	inhibit both MAO A and MAO B activity
C1=CCC(c2cccnc2)NC1 (stereo not shown) [anatabine, Anatabine]			equally effective in inhibiting both MAO A and MAO B activities	approximately 60%	0.1 mg/mL	effective at inhibiting the enzyme at all time points in the reaction	equally effective in inhibiting both MAO A and MAO B activities
CN1CCCC1c1cccnc1 (stereo not shown) [nicotine]	no significant effect on dopamine levels	prevented the decrease in dopamine metabolite levels					
c1cncc([C@@H]2CCCN2)c1 [nornicotine, Nornicotine]			equally effective in inhibiting both MAO A and MAO B activities	80 to 95%	0.08 mg/mL	effective at inhibiting the enzyme at all time points in the reaction	equally effective in inhibiting both MAO A and MAO B activities
